From ChEMBL document CHEMBL1201862, “PubChem BioAssay data set” (2004)
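1) Cells in 96-well plates. 2) Compound, 48 h, 5 concentrations. 3) Linear interpolation between surrounding doses. 4) Unreached endpoint = highest concentration. GI50 marks 50% less growth.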 Active and inactive are the calls of the source. No stated cut-off is given here; in the data, active = GI50 up to about 1.1 µM and inactive = higher.

What was measured:
Experiment in all cases: NCI anticancer screen, dose series, 48 h
ACHN = tested on: ACHN
CCRF-CEM = tested on: CCRF-CEM
COLO 205 = tested on: COLO 205
DU-145 = tested on: DU-145
HCC 2998 = tested on: HCC 2998
HCT-15 = tested on: HCT-15
HT-29 = tested on: HT-29
Hs-578T = tested on: Hs-578T
K562 = tested on: K562
NCI-H23 = tested on: NCI-H23
NCI-H460 = tested on: NCI-H460
NCI/ADR-RES = tested on: NCI/ADR-RES
OVCAR-4 = tested on: OVCAR-4
OVCAR-5 = tested on: OVCAR-5
OVCAR-8 = tested on: OVCAR-8
SF-539 = tested on: SF-539
SK-MEL-5 = tested on: SK-MEL-5
T47D = tested on: T47D
TK-10 = tested on: TK-10
UACC-62 = tested on: UACC-62

Row | SMILES | GI50 (ACHN) | GI50 (CCRF-CEM) | GI50 (COLO 205) | GI50 (DU-145) | GI50 (HCC 2998) | GI50 (HCT-15) [µM] | GI50 (HT-29) | GI50 (Hs-578T) | GI50 (K562) | GI50 (NCI-H23) | GI50 (NCI-H460) | GI50 (NCI/ADR-RES) | GI50 (OVCAR-4) | GI50 (OVCAR-5) | GI50 (OVCAR-8) | GI50 (SF-539) | GI50 (SK-MEL-5) | GI50 (T47D) | GI50 (TK-10) | GI50 (UACC-62)
1 | CC1CNC(c2cccc(OCc3ccc(COc4cccc(C5=NC(C)CN5)c4)cc3)c2)=N1 (stereo not given) | > 100 µM (inactive) | 18.9 µM (inactive) | 17 µM (inactive) | 50.8 µM (inactive) | 24 µM (inactive) | > 100 | 25.4 µM (inactive) | 20.2 µM (inactive) | 5.7 µM (inactive) | 43.7 µM (inactive) | 22.5 µM (inactive) | > 100 µM (inactive) | 49.7 µM (inactive) | 40.1 µM (inactive) | 56.8 µM (inactive) | 16.3 µM (inactive) | 22.9 µM (inactive) | 35.9 µM (inactive) | 27.1 µM (inactive) | 99.5 µM (inactive)
2 | Fc1ccccc1C1SCC2=Nc3ccccc3CN21 (stereo not given) | > 100 µM (inactive) | > 100 µM (inactive) | > 100 µM (inactive) | > 100 µM (inactive) | > 100 µM (inactive) | > 100 | > 100 µM (inactive) | > 100 µM (inactive) | > 100 µM (inactive) | > 100 µM (inactive) | > 100 µM (inactive) | > 100 µM (inactive) | > 100 µM (inactive) | 92.9 µM (inactive) | > 100 µM (inactive) | 94.8 µM (inactive) | 89.7 µM (inactive) | > 100 µM (inactive) | > 100 µM (inactive) | 99.8 µM (inactive)
3 | N/N=C1/CCCc2nonc21 | > 100 µM (inactive) | > 100 µM (inactive) | > 100 µM (inactive) | > 100 µM (inactive) | > 100 µM (inactive) | > 100 | > 100 µM (inactive) | > 100 µM (inactive) | > 100 µM (inactive) | > 100 µM (inactive) | > 100 µM (inactive) | > 100 µM (inactive) | > 100 µM (inactive) | > 100 µM (inactive) | > 100 µM (inactive) | > 100 µM (inactive) | > 100 µM (inactive) | > 100 µM (inactive) | > 100 µM (inactive) | > 100 µM (inactive)
4 | C=C1C(=O)O[C@@H]2[C@H]1C[C@H](I)[C@@]1(C)CC[C@H](O1)[C@](C)(I)CCCC(C)[C@@H]2O (stereo not given in full) | 1.79 µM (inactive) | 0.384 µM (active) | 2.21 µM (inactive) | 6.19 µM (inactive) | 12.2 µM (inactive) | 1.76 | 1.93 µM (inactive) | 14.6 µM (inactive) | 2.37 µM (inactive) | 7.43 µM (inactive) | 14.5 µM (inactive) | 3.17 µM (inactive) | 6.32 µM (inactive) | 8.69 µM (inactive) | 2.96 µM (inactive) | 2.02 µM (inactive) | 3.29 µM (inactive) | 3.79 µM (inactive) | 1.75 µM (inactive) | 4.92 µM (inactive)
5 | CCCN(CCCCC(NC(C)=O)C(=O)NCc1ccccc1)C(=O)N(CCCl)N=O (stereo not given) | 25.8 µM (inactive) | 54.6 µM (inactive) | > 90.2 µM (inactive) | 27.2 µM (inactive) | > 58.9 µM (inactive) | > 100 | > 96.6 µM (inactive) | 42.1 µM (inactive) | 65.2 µM (inactive) | 49.9 µM (inactive) | 10.1 µM (inactive) | 31.6 µM (inactive) | > 100 µM (inactive) | > 100 µM (inactive) | > 89.7 µM (inactive) | 8.55 µM (inactive) | > 77.8 µM (inactive) | 78.9 µM (inactive) | > 100 µM (inactive) | 11.7 µM (inactive)
6 | CC(O)CN1c2ccccc2Sc2ccc(Cl)cc21 (stereo not given) | > 10 µM (inactive) | > 10 µM (inactive) | > 10 µM (inactive) | > 10 µM (inactive) | > 10 µM (inactive) | > 10 | > 10 µM (inactive) | > 10 µM (inactive) | > 10 µM (inactive) | > 10 µM (inactive) | > 10 µM (inactive) | > 10 µM (inactive) | > 10 µM (inactive) | > 10 µM (inactive) | > 10 µM (inactive) | > 10 µM (inactive) | > 10 µM (inactive) | > 10 µM (inactive) | > 10 µM (inactive) | > 10 µM (inactive)
